Results from patent US20240148821A1, “PHARMACEUTICAL USE OF CYCLIC PEPTIDE COMPOUND” (CHUGAI SEIYAKU KABUSHIKI KAISHA, priority 2021, published 2024).
Numbered stars: 1 amine (or outer) side, 2 acyl side, 3 side chain; on linkers, the order of the positions; unused ones are H or OH. Bridge positions count the residues as written; N and C are the ends. Square brackets hold non-standard residues; d marks the D form. Peptide text beside a SMILES is read from it. * marks the point of attachment. hPhe(3-Cl-4-CF3) = N[C@@H](CCc1ccc(C(F)(F)F)c(Cl)c1)C(=O)O; X16 = CS(=O)(=O)c1ccc(CC[C@H](N[*:1])C(=O)[*:2])cc1; X22 = O=C([C@H](CCc1ccc(C(F)F)nc1)N[*:1])[*:2]; 3Oxa8azabicyclo(3.2.1)octane = C1CC2COCC1N2*; NMePhe(4-Me) = CN[C@@H](Cc1ccc(C)cc1)C(=O)O; X3 = O=C(CN(C1CC2(C1)CC(F)(F)C2)[*:1])[*:2]; NMedβ3hAla = C[C@H](CC(=O)[*:2])N(C)[*:1]; NMeAla(cPent) = CN[C@@H](CC1CCCC1)C(=O)O; NMeGly(cPent) = CN[C@H](C(=O)O)C1CCCC1; X28 = O=C(CN(C1CC2(COC2)C1)[*:1])[*:2]; NMe3Pal = CN[C@@H](Cc1cccnc1)C(=O)O; NMeCha = CN[C@@H](CC1CCCCC1)C(=O)O; Hyp = O=C(O)[C@@H]1C[C@@H](O)CN1; NMeChg = CN[C@H](C(=O)O)C1CCCCC1; NMeI = CC[C@H](C)[C@H](NC)C(=O)O; NMeD = CN[C@@H](CC(=O)O)C(=O)O; NMeL = CN[C@@H](CC(C)C)C(=O)O; NMeNva = CCC[C@H](NC)C(=O)O; NMeV = CN[C@H](C(=O)O)C(C)C; NMeS = CN[C@@H](CO)C(=O)O; Morpholide = C1CN(*)CCO1; NMeA = CN[C@@H](C)C(=O)O; Piperidide = C1CCN(*)CC1; Pyrrolidide = C1CCN(*)C1; dNMeA = CN[C@H](C)C(=O)O; Ac5c = NC1(C(=O)O)CCCC1; Aze = O=C(O)[C@@H]1CCN1; Sar = CNCC(=O)O; Propyl = CCC*

Legend:
[1] = biological target: protein-protein interaction between Kras and SOS1 (biotin-tagged human Kras loaded with GDP, His-tagged human SOS1) (Homo sapiens (Human), UniProt P01116, G12D); assay: Protein-protein interaction inhibition between Kras and SOS1 (KrasG12D-SOS PPI) using AlphaScreen; assay type: biochemical; details: AlphaScreen; biotin-tagged human Kras loaded with GDP, His-tagged human SOS1; read-out: KRAS G12D-SOS PPI IC50;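 further: kras produced in E. coli, Ni-coupled donor beads and streptavidin acceptor beads, excitation 680 nm with emission detected at 520–620 nm via singlet oxygen transfer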
[2] = system: Human pancreatic cancer cell line AsPC-1 (G12D mutation Kras); assay: AsPC-1 cell growth inhibition (AsPC-1 CGI); assay type: cell-based; details: read-out: AsPC-1 cell growth inhibition, 50% growth inhibitory concentration (IC50 value); 96 hours, CellTiter-Glo, values classified in ranges
Description: Test compounds were serially dilated with dimethyl sulfoxide, and 200 nL was then dispensed to a U-bottom 96-well plate using Labcyte Echo. […] The cell suspension was dispensed to a. plate containing a test compound at 100 μL per well and incubated at 37° C. in a 5% carbon dioxide gas incubator. 96 hours later, 80 μL of CellTiter-Glo (Promega) was added to each well and fluorescence was measured.

Compound | IC50 [1] | IC50 [2]
CC[C@H](C)[C@@H]1NC(=O)[C@H](C)N(C)C(=O)C[C@@H](C(=O)N2CCCC2)N(C)C(=O)[C@H](C(C)C)N(C)C(=O)C2(CCCC2)NC(=O)[C@@H]2CCCN2C(=O)[C@H](CCc2ccc(C(F)(F)F)c(Cl)c2)NC(=O)[C@@H](C)N(C)C(=O)[C@H](CC2CCCCC2)N(C)C(=O)[C@@H]2CCN2C(=O)[C@H](C)N(C)C1=O [Compound 1827] ([NMeA]I[NMeA][Aze][NMeCha][dNMeA][hPhe(3-Cl-4-CF3)]P[Ac5c][NMeV][NMeD]-Pyrrolidide; lactam N-11) | 6.6 nM | > 500 nM
CCCOC[C@@H]1NC(=O)[C@H](CC(C)C)N(C)C(=O)C[C@@H](C(=O)N2CCCCC2)N(C)C(=O)[C@H](C(C)C)N(C)C(=O)C2(CCCC2)NC(=O)[C@@H]2CCCN2C(=O)[C@H](CCc2ccc(C(F)(F)F)c(Cl)c2)NC(=O)CN(C)C(=O)[C@H](CC2CCCCC2)N(C)C(=O)[C@@H]2CCN2C(=O)[C@H](C)N(C)C1=O [Compound 1831] ([NMeL]S(Propyl)[NMeA][Aze][NMeCha][Sar][hPhe(3-Cl-4-CF3)]P[Ac5c][NMeV][NMeD]-Piperidide; lactam N-11) | 71 nM | > 500 nM
CC[C@H](C)[C@@H]1NC(=O)[C@H](CO)N(C)C(=O)C[C@@H](C(=O)N2CCCCC2)N(C)C(=O)[C@H](C(C)C)N(C)C(=O)C2(CCCC2)NC(=O)[C@@H]2CCCN2C(=O)[C@H](CCc2ccc(C(F)(F)F)c(Cl)c2)NC(=O)CN(C)C(=O)[C@H](CC2CCCCC2)N(C)C(=O)[C@@H]2CCN2C(=O)[C@H](C)N(C)C1=O [Compound 1837] ([NMeS]I[NMeA][Aze][NMeCha][Sar][hPhe(3-Cl-4-CF3)]P[Ac5c][NMeV][NMeD]-Piperidide; lactam N-11) | 2 nM | > 500 nM
CC[C@H](C)[C@@H]1NC(=O)[C@H](CC(C)C)N(C)C(=O)C[C@@H](C(=O)N(C)C)N(C)C(=O)[C@H]([C@@H](C)CC)N(C)C(=O)C2(CCCC2)NC(=O)[C@@H]2CCCN2C(=O)[C@H](CCc2ccc(C(F)(F)F)c(Cl)c2)NC(=O)CN(C)C(=O)[C@H](Cc2ccc(C)cc2)N(C)C(=O)[C@@H]2CCN2C(=O)[C@H](C)N(C)C1=O [Compound 1842] ([NMeL]I[NMeA][Aze][NMePhe(4-Me)][Sar][hPhe(3-Cl-4-CF3)]P[Ac5c][NMeI][NMeD]-NMe2; lactam N-11) | 0.66 nM | ≤ 20 nM
CC[C@H](C)[C@@H]1NC(=O)[C@H](CC(C)C)N(C)C(=O)C[C@@H](C(=O)N2CCCC2)N(C)C(=O)[C@H]([C@@H](C)CC)N(C)C(=O)C2(CCCC2)NC(=O)[C@@H]2CCCN2C(=O)[C@H](CCc2ccc(C(F)(F)F)c(Cl)c2)NC(=O)CN(C)C(=O)[C@H](CC2CCCCC2)N(C)C(=O)[C@@H]2CCN2C(=O)[C@H](C)N(C)C1=O [Compound 1843] ([NMeL]I[NMeA][Aze][NMeCha][Sar][hPhe(3-Cl-4-CF3)]P[Ac5c][NMeI][NMeD]-Pyrrolidide; lactam N-11) | 0.84 nM | ≤ 20 nM
CC[C@H](C)[C@@H]1NC(=O)[C@H](CC(C)C)N(C)C(=O)C[C@@H](C)N(C)C(=O)[C@H](C2CCCCC2)N(C)C(=O)C2(CCCC2)NC(=O)[C@H](Cc2cccnc2)N(C)C(=O)[C@H](CCc2ccc(C(F)(F)F)c(Cl)c2)NC(=O)CN(C)C(=O)[C@H](CC2CCCCC2)N(C)C(=O)CN(C)C(=O)CN(C)C1=O [Compound 1849] (cyclo([Ac5c][NMeChg][NMedβ3hAla][NMeL]I[Sar][Sar][NMeCha][Sar][hPhe(3-Cl-4-CF3)][NMe3Pal])) | 230 nM | > 500 nM
CCC[C@H]1C(=O)N[C@@H]([C@@H](C)CC)C(=O)N(C)CC(=O)N(C)CC(=O)N(C)[C@@H](CC2CCCC2)C(=O)N(C)CC(=O)N[C@@H](CCc2ccc(C(F)(F)F)c(Cl)c2)C(=O)N(C)[C@@H](Cc2cccnc2)C(=O)NC2(CCCC2)C(=O)N(C)[C@@H](C2CCCCC2)C(=O)N(C)[C@H](C(=O)N2CCOCC2)CC(=O)N1C [Compound 1937] ([NMeNva]I[Sar][Sar][NMeAla(cPent)][Sar][hPhe(3-Cl-4-CF3)][NMe3Pal][Ac5c][NMeChg][NMeD]-Morpholide; lactam N-11) | 3.1 nM | > 500 nM
CCC[C@H]1C(=O)N[C@@H]([C@@H](C)CC)C(=O)N(C)CC(=O)N(C)CC(=O)N(C)[C@@H](CC2CCCC2)C(=O)N(C)CC(=O)N[C@@H](CCc2ccc(C(F)(F)F)c(Cl)c2)C(=O)N(C)[C@@H](Cc2cccnc2)C(=O)NC2(CCCC2)C(=O)N(C)[C@@H](C2CCCCC2)C(=O)N(C)[C@H](C(=O)N2CCCC2)CC(=O)N1C [Compound 1946] ([NMeNva]I[Sar][Sar][NMeAla(cPent)][Sar][hPhe(3-Cl-4-CF3)][NMe3Pal][Ac5c][NMeChg][NMeD]-Pyrrolidide; lactam N-11) | 1.5 nM | > 500 nM
CCO[C@@H]1C[C@H]2C(=O)NC3(CCCC3)C(=O)N(C)[C@@H](C3CCCCC3)C(=O)N(C)[C@H](C(=O)N3C4CCC3COC4)CC(=O)N(C)[C@@H](CC(C)C)C(=O)N[C@@H]([C@@H](C)CC)C(=O)N(C)CC(=O)N(C)CC(=O)N(C)[C@@H](CC3CCCCC3)C(=O)N(C)CC(=O)N[C@@H](CCc3ccc(C(F)(F)F)c(Cl)c3)C(=O)N2C1 [Compound 1977] ([NMeL]I[Sar][Sar][NMeCha][Sar][hPhe(3-Cl-4-CF3)][Hyp](Et)[Ac5c][NMeChg][NMeD]-{3Oxa8azabicyclo(3.2.1)octane}; lactam N-11) | 0.47 nM | ≤ 20 nM
CCO[C@@H]1C[C@H]2C(=O)NC3(CCCC3)C(=O)N(C)[C@@H](C3CCCCC3)C(=O)N(C)[C@H](C(=O)N3CCOCC3)CC(=O)N(C)[C@@H](CC(C)C)C(=O)N[C@@H]([C@@H](C)CC)C(=O)N(C)CC(=O)N(C)CC(=O)N(C)[C@@H](CC3CCCCC3)C(=O)N(C)CC(=O)N[C@@H](CCc3ccc(C(F)(F)F)c(Cl)c3)C(=O)N2C1 [Compound 1990] ([NMeL]I[Sar][Sar][NMeCha][Sar][hPhe(3-Cl-4-CF3)][Hyp](Et)[Ac5c][NMeChg][NMeD]-Morpholide; lactam N-11) | 0.43 nM | ≤ 20 nM
CC[C@H](C)[C@@H]1NC(=O)[C@H](CC(C)C)N(C)C(=O)C[C@@H](C(=O)N2CCCCC2)N(C)C(=O)[C@H](C2CCCCC2)N(C)C(=O)C2(CCCC2)NC(=O)CN(C2CC3(COC3)C2)C(=O)[C@H](CCc2ccc(C(F)(F)F)c(Cl)c2)NC(=O)CN(C)C(=O)[C@H](CC2CCCCC2)N(C)C(=O)CN(C)C(=O)CN(C)C1=O [Compound 2030] ([NMeL]I[Sar][Sar][NMeCha][Sar][hPhe(3-Cl-4-CF3)][X28][Ac5c][NMeChg][NMeD]-Piperidide; lactam N-11) | 2.3 nM | > 500 nM
CC[C@H](C)[C@@H]1NC(=O)[C@H](CC(C)C)N(C)C(=O)C[C@@H](C(=O)N2CCCCC2)N(C)C(=O)[C@H](C2CCCCC2)N(C)C(=O)C2(CCCC2)NC(=O)CN(C2CC3(C2)CC(F)(F)C3)C(=O)[C@H](CCc2ccc(C(F)(F)F)c(Cl)c2)NC(=O)CN(C)C(=O)[C@H](CC2CCCCC2)N(C)C(=O)CN(C)C(=O)CN(C)C1=O [Compound 2035, (11S,17S,26S,29S,33S,36S)-11-[2-[3-chloro-4-(trifluoromethyl)phenyl]ethyl]-36-cyclohexyl-17-(cyclohexylmethyl)-9-(2,2-difluorospiro[3.3]heptan-6-yl)-29-isobutyl-15,18,21,24,30,34,37-heptamethyl-26-[(1S)-1-methylpropyl]-33-(piperidine,-1-carbonyl)-6,9,12,15,18,21,24,27,30,34,37-undecazaspiro[4.33]octatriacontane-7,10,13,16,19,22,25,28,31,35,38-undecone] ([NMeL]I[Sar][Sar][NMeCha][Sar][hPhe(3-Cl-4-CF3)][X3][Ac5c][NMeChg][NMeD]-Piperidide; lactam N-11) | 24 nM | > 500 nM
CC[C@H](C)[C@@H]1NC(=O)[C@H](CC(C)C)N(C)C(=O)C[C@@H](C(=O)N2CCCCC2)N(C)C(=O)[C@H](C2CCCCC2)N(C)C(=O)C2(CCCC2)NC(=O)[C@@H]2CCCN2C(=O)[C@H](CCc2ccc(S(C)(=O)=O)cc2)NC(=O)CN(C)C(=O)[C@H](CC2CCCCC2)N(C)C(=O)CN(C)C(=O)CN(C)C1=O [Compound 2058, (3S,9S,18S,21S,25S,28S,34S)-28-cyclohexyl-9-(cyclohexylmethyl)-21-isobutyl-7,10,13,16,22,26,29-heptamethyl-18-[(1S)-1-methylpropyl]-3-[2-(4-methylsulfonylphenyl)ethyl]-25-(piperidine-1-carbonyl)spiro[1,4,7,10,13,16,19,22,26,29,32-undecazabicyclo[32.3.0]heptatriacontane-31,1′-cyclopentane]-2,5,8,11,14,17,20,23,27,30,33-undecone] ([NMeL]I[Sar][Sar][NMeCha][Sar][X16]P[Ac5c][NMeChg][NMeD]-Piperidide; lactam N-11) | 380 nM | > 500 nM
CC[C@H](C)[C@@H]1NC(=O)[C@H](CC(C)C)N(C)C(=O)C[C@@H](C(=O)N2CCCCC2)N(C)C(=O)[C@H](C2CCCC2)N(C)C(=O)C2(CCCC2)NC(=O)[C@@H]2CCCN2C(=O)[C@H](CCc2ccc(C(F)F)nc2)NC(=O)CN(C)C(=O)[C@H](CC2CCCCC2)N(C)C(=O)[C@@H]2CCN2C(=O)[C@H](C)N(C)C1=O [Compound 2060] ([NMeL]I[NMeA][Aze][NMeCha][Sar][X22]P[Ac5c][NMeGly(cPent)][NMeD]-Piperidide; lactam N-11 (inferred); C-terminus assumed) | 110 nM | > 500 nM
